Values of other authors, collected in US20240327780A1 (priority 2023, published 2024).
Counter-ions that a name gives are not always drawn.

Test system: SARS-CoV-2 nsp14

SMILES | inhibition of nsp14 in fluorescence-based screen
Fc1ccc(C(c2ccc(F)cc2)N2CCN(C/C=C/c3ccccc3)CC2)cc1 [flunarizine dihydrochloride] | selective inhibitors
Clc1ccc2nsnc2c1NC1=NCCN1 [tizanidine hydrochloride] | selective inhibitors
